Data on 23 compounds can be found in ChEMBL document CHEMBL1201862, “PubChem BioAssay data set” (2004).

SMILES strings stand for the structures. Several values for one entry are separate records, joined by “and”; a condition that tells them apart may be missing. Identical values can stand only once.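 A five-concentration, 48-hour dose response in 96-well plates underlies each endpoint, interpolated linearly between surrounding concentrations. GI50 marks 50% less growth.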 Activity calls are given as the source filed them. Rule as the data show it: active = GI50 up to about 1.1 µM and inactive = higher. Bounds are passed on as bounds.

Some test systems named below: HOP-18; XF498; SNB-78; LXFL 529; DLD-1; RXF 631; DMS-273; DMS-114; KM-20L2.
Holding throughout (assay): NCI tumour cell line growth inhibition, 48 h

As for `O=C(NC(=O)c1c(F)cccc1F)Nc1cccc(Oc2ncc(Cl)cn2)c1`, the GI50 in the experiment with HOP-18 was > 100 µM (inactive); in the experiment with XF498 it was 19.7 µM (inactive); with SNB-78, > 100 µM (inactive); in the experiment with LXFL 529 it was > 91 µM (inactive); with DLD-1, > 100 µM (inactive); with RXF 631, > 100 µM (inactive). Further, the GI50 with DMS-273 was 2.45 µM (inactive).
In the case of `COC(=O)CCC1CCc2c(OC)ccc(OC)c2C1=O` (stereo not given), the GI50 in the experiment with DMS-114, in the experiment on KM-20L2, in the experiment on SNB-78, in the experiment with LXFL 529, in the experiment on DLD-1 and in the experiment on DMS-273 was > 100 µM (inactive) throughout.
Take `CSC1CC2C(CC1(C)O)C2(C)C` (stereo not given): the GI50 is > 100 µM (inactive) and 74.8 µM (inactive) in the experiment with KM-20L2; > 100 µM (inactive) with SNB-78; > 100 µM (inactive) in the experiment on LXFL 529; > 100 µM (inactive) with DLD-1; > 100 µM (inactive) and 69.3 µM (inactive) with DMS-273.
For the compound `Nc1ccc(Sc2c3ccccc3nc3ccccc23)cc1`, the GI50 was 18.2 µM (inactive) in the experiment with DMS-114; 16.7 µM (inactive) in the experiment with KM-20L2; 22.3 µM (inactive) with HOP-18; 14.4 µM (inactive) with XF498; 22.4 µM (inactive) in the experiment on SNB-78; 7.96 µM (inactive) in the experiment with LXFL 529. For the same compound, the figures for the GI50 with DLD-1 and in the experiment on DMS-273 were 6 µM (inactive) and 14.1 µM (inactive), respectively.
Regarding `CC1=N/C(=C\c2c(O)ccc3ccccc23)C(=O)O1`, the GI50 in the experiment with DMS-114, in the experiment with KM-20L2, in the experiment with HOP-18, in the experiment on SNB-78, in the experiment on LXFL 529 and in the experiment on DLD-1 was > 100 µM (inactive) each time.
Consider `[N-]=[N+]=NC1C2CC3CC(C2)CC1C3` (stereo not given), for which the GI50 in the experiment with DMS-114, in the experiment on KM-20L2, in the experiment with HOP-18, with SNB-78, in the experiment with LXFL 529 and in the experiment on RXF 631 was > 100 µM (inactive) each time. The GI50 in the experiment with DMS-273 was > 100 µM (inactive).
For `O=C(Nc1ccc(S(=O)(=O)N[C@@H](C(=O)O)c2ccccc2)cc1)c1ccc(F)cc1`, the GI50 was > 100 µM (inactive) in the experiment with KM-20L2; > 100 µM (inactive) with HOP-18; 67.5 µM (inactive) with XF498; > 100 µM (inactive) in the experiment on LXFL 529; > 100 µM (inactive) in the experiment on DLD-1; > 100 µM (inactive) with DMS-273.
Regarding `COc1cc([C@@H]2c3cc4c(cc3[C@@H](NC(=O)c3cccc([N+](=O)[O-])c3)C3COC(=O)[C@@H]32)OCO4)cc(OC)c1O` (stereo not given in full), the GI50 with DMS-114 is 0.548 µM (active); in the experiment with KM-20L2 it was 2.82 µM (inactive); in the experiment with SNB-78, 4.73 µM (inactive); in the experiment with LXFL 529, 10.3 µM (inactive); with DLD-1 it was 3.33 µM (inactive); with RXF 631 it was 1.31 µM (inactive). The GI50 in the experiment on DMS-273 is 0.149 µM (active).
For `COc1ccc(C(=O)C(c2ccc(OC)cc2)C2OC(=O)C(Cl)=C2Cl)cc1` (stereo not given), the GI50 in the experiment with DMS-114, in the experiment with HOP-18, in the experiment with XF498, with SNB-78, in the experiment on LXFL 529 and with DLD-1 was > 100 µM (inactive) each time.
Consider `O/N=C/c1cc2c(cc1Br)OCO2`, for which the GI50 with KM-20L2, in the experiment on HOP-18, in the experiment on SNB-78, in the experiment on LXFL 529, in the experiment with DLD-1 and in the experiment on RXF 631 was > 100 µM (inactive) in each case. In the experiment with DMS-273, the GI50 is > 100 µM (inactive).
For the compound `OCC(O)C(OC1OC(CO)C(O)C(O)C1O)c1nn(-c2ccc(Cl)cc2)c2nc3cc(Cl)c(Cl)cc3nc12` (stereo not given), the GI50 in the experiment with DMS-114, in the experiment on KM-20L2, with XF498, in the experiment on SNB-78, in the experiment on LXFL 529 and with DLD-1 was > 100 µM (inactive) throughout.
`Cc1ccccc1C(C#N)/C(=N/NC(N)=S)C(=O)Nc1c(C)cccc1C` (stereo not given): the GI50 is 10.4 µM (inactive) in the experiment with DMS-114; > 100 µM (inactive) with KM-20L2; > 100 µM (inactive) in the experiment with HOP-18; 32.8 µM (inactive) with XF498; > 100 µM (inactive) with SNB-78; > 100 µM (inactive) in the experiment on LXFL 529. In addition, the GI50 with DLD-1 and in the experiment with RXF 631 was > 100 µM (inactive) each time.
For the compound `O=C(O)/C(Cl)=C(/Cl)C(=O)Nc1cccc(Cl)c1`, the GI50 with DMS-114 was 16.6 µM (inactive); in the experiment on KM-20L2, 19.7 µM (inactive); with HOP-18, 20.4 µM (inactive); in the experiment on XF498, 18.1 µM (inactive); with SNB-78, 25.2 µM (inactive); in the experiment on LXFL 529, 15.4 µM (inactive). The values for the GI50 in the experiment on DLD-1, in the experiment with RXF 631 and with DMS-273 were 15.6 µM (inactive), 22 µM (inactive) and 12.9 µM (inactive), respectively.
In the case of `C[C@]12CCC(=O)C=C1CC[C@@H]1C2CC[C@@]2(C)C1CC[C@@H]2OC(=O)C12OC1CCC2=O` (stereo not given in full), the GI50 in the experiment with DMS-114 was 17.7 µM (inactive); in the experiment on KM-20L2, 18.7 µM (inactive); in the experiment with HOP-18, 17.4 µM (inactive); in the experiment with XF498 it was 13.9 µM (inactive); in the experiment with SNB-78 it was 16.8 µM (inactive); with LXFL 529, 14.8 µM (inactive). In addition, in the experiment on DMS-273, the GI50 is 15.5 µM (inactive).
As for `CC(c1ccccc1)N1CC(C)(c2ccccc2)N(O)C(c2ccccc2)C1C` (stereo not given), the GI50 is 5.33 µM (inactive) in the experiment on DMS-114; 4.39 µM (inactive) with KM-20L2; 17.7 µM (inactive) with HOP-18; 15.1 µM (inactive) with SNB-78; 9.06 µM (inactive) in the experiment on LXFL 529; 23.7 µM (inactive) with DLD-1. The GI50 is 12.6 µM (inactive) in the experiment on RXF 631 and 7.93 µM (inactive) in the experiment with DMS-273.
On to `Clc1ccc(OCCSCCCCCCCCCCSCCOc2ccc(Cl)cc2)cc1`, for which the GI50 in the experiment on DMS-114, in the experiment on KM-20L2, in the experiment with HOP-18, with SNB-78, with DLD-1 and in the experiment on DMS-273 was > 100 µM (inactive) throughout.
Take `CN1CCCC2[C@@H]3CCC4=C(O)C(=O)CC[C@]4(C)C3CC[C@@]21C` (stereo not given in full): the GI50 with DMS-114, with KM-20L2, in the experiment with HOP-18, in the experiment with XF498, with LXFL 529 and in the experiment on RXF 631 was > 100 µM (inactive) in each case. Also, the GI50 in the experiment with DMS-273 is > 100 µM (inactive).
As for `CC(C)(C)c1nc2c(o1)C(=O)c1ccccc1C2=O`, the GI50 was 2.23 µM (inactive) in the experiment with DMS-114; 22.1 µM (inactive) in the experiment with KM-20L2; 7.19 µM (inactive) in the experiment with HOP-18; 2.67 µM (inactive) with XF498; 11.5 µM (inactive) in the experiment on SNB-78; 6.44 µM (inactive) in the experiment with LXFL 529. In addition, the GI50 with DLD-1 was 5.83 µM (inactive); in the experiment with RXF 631 it was 5.92 µM (inactive); in the experiment with DMS-273, 5.08 µM (inactive).
Consider `COC(=O)C12C3C4C1C1C2C3C41C(=O)OC(C)(C)C` (stereo not given), for which the GI50 in the experiment on DMS-114 was > 44.8 µM (inactive); with KM-20L2, > 100 µM (inactive); with HOP-18, > 100 µM (inactive); in the experiment on XF498, > 100 µM (inactive); with SNB-78, > 100 µM (inactive); in the experiment with LXFL 529 it was > 100 µM (inactive). Moreover, the GI50 in the experiment on DLD-1 is > 47.9 µM (inactive); in the experiment on RXF 631, > 100 µM (inactive); in the experiment with DMS-273, > 44.1 µM (inactive).
`CCN(CC)CCOC(=O)Cc1cccc2c(=O)cc(-c3ccccc3)oc12`: the GI50 was 31.8 µM (inactive) with DMS-114; 95.3 µM (inactive) in the experiment with KM-20L2; 78.2 µM (inactive) in the experiment on HOP-18; 18 µM (inactive) in the experiment with XF498; 84.9 µM (inactive) with SNB-78; 94.8 µM (inactive) in the experiment with DLD-1. Besides, the GI50 with DMS-273 is 361 µM (inactive).
In the case of `Cc1cc2c(=O)cc(-c3ccc(C(F)(F)F)cc3)oc2c(C(=O)O)c1C`, the GI50 in the experiment on DMS-114, in the experiment with KM-20L2, in the experiment on HOP-18, in the experiment with XF498, in the experiment with SNB-78 and with LXFL 529 was > 100 µM (inactive) throughout. In addition, the GI50 in the experiment on DLD-1, in the experiment with RXF 631 and in the experiment with DMS-273 was > 100 µM (inactive) throughout.
Take `O=S(=O)(O)C1=C2Sc3ccccc3N=C2c2ccccc2C1`: the GI50 in the experiment on DMS-114 was 10.3 µM (inactive); with KM-20L2, 18.4 µM (inactive); in the experiment on HOP-18, 12.4 µM (inactive); with XF498, 17.7 µM (inactive); in the experiment with SNB-78 it was 17.8 µM (inactive); in the experiment on LXFL 529, 12.2 µM (inactive). For the same compound, the figures for the GI50 in the experiment with DLD-1, in the experiment with RXF 631 and in the experiment with DMS-273 were 15.3 µM (inactive), 16 µM (inactive) and 15.5 µM (inactive), respectively.
With `c1ccc(C2[C@@H]3CCCc4ccccc4C3=NN2c2ccccc2)cc1` (stereo not given in full), the GI50 with DMS-114 was > 100 µM (inactive); in the experiment on KM-20L2 it was > 100 µM (inactive); in the experiment on XF498, 28.2 µM (inactive); with SNB-78 it was > 100 µM (inactive); in the experiment on LXFL 529 it was 53.2 µM (inactive); with DLD-1, 51.6 µM (inactive).
